How the values were obtained:
[1] = test system: exon 45; details: RMS cells, 24 hr incubation; for Exon Skipping Efficacy (%) with 5 μM AC: 5 μM AC with Endo-Porter; for Exon Skipping Efficacy (%) with 10 μM AC: 10 μM AC with Endo-Porter
Description: Cell Culture and Treatment: This study eruploys human rhabdomyosarcorna cells (RMS cells, ATCC CRL-2061. RMS cells were cultured in T75 flasks in RP 11640 (ATCC) medium with addition of 10% FBS (VWR) and Ix Penicillin-Streptormycin (VWR) under conditions of 37° C. and 5% CO2. 1×10^5 RMS cells were seeded per well in RPMII 640 full medium in 24-well plates for overnight. The next day the culture medium was replaced with 1 mL. fresh medium 5 μM or 10 μM of an AC from Table 8 was added to the cell culture and swirled to mix. Subsequently, 6 μL of Endo-Porter (Gene-tools) was added to the cell culture per well (1 mL of culture medium) and immediately swirled to mix. […] The cells were allowed to stand at room temperature for 5 minutes for cell lysis and pipetted a few times for a thorough mix. The lysates were collected in the Sample Tube RB (QIAGEN).
RNA Extraction: The RNA was extracted using QIAcube following the protocol from the manufacture. The concentration of the total RNA was determined using a NanoDrop 8000 (Thermo Fisher Scientific).
Nested PCR: Nested PCR was performed with 200 ng of the extracted total RNA and QIAGEN OneStep RT-PCR Kits for the primary amplification. A reaction solution of 50 μL was prepared following manufacture's protocol with DMD specific primers
The RT-PCR program used is as follows:
The secondary amplification PCR reaction was prepared using OneTaq® Hot Start 2X Master Mix following manufacture's protocol
Gel Electrophoresis Analysis for Exon Skipping Efficiency: 4 μL of the PCR product above was analyzed by 2% E-gel (Invitrogen′™) and imaged with E-Gel™ Power Snap Electrophoresis System (Thermo Fisher Scientific). The intensities of the skipped and full-length bands were analyzed. The polynucleotide level “A” of the band with exon 45 skipping and the polynucleotide level “B” of the band without exon 45 skipping were measured using ImageJ. 181 Based on these measurement values of “A” and “B”, the skipping efficiency was determined by the following equation: Skipping efficiency (%)=A/(A+B)'100.

[2] = test system: D2/MDX mice; details: Q2W IV; 4, 8 and 12 weeks post-treatment
Description: Serum CK was determined at 4 time points: pre-dose, and at 4, 8 and 12 weeks.

[3] = test system: D2/MDX mice; details: PMO only, Q2W IV; 2 to 12 weeks
[4] = test system: D2/MDX mice; details: Q2W IV; at 12 weeks vs pre-dose
Description: Grip strength was measured at pre-dose (FIG. 11A) and at 12 weeks (FIG. 11B).

Substance	Exon Skipping Efficacy (%) with 5 μM AC [1]	Exon Skipping Efficacy (%) with 10 μM AC [1]	Serum CK [2]	Wire hang time, PMO treatment alone [3]	Grip strength [4]
5′-AATGCCATCCTGGAGTTCCTG-3′ [D45-21mer-n3]	41.8%	52.7%			
5′-ATGCCATCCTGGAGTTCCTGT-3′ [D45-21mer-n4]	42.6%	52.0%			
5′-ATGCCATCCTGGAGTTCCTGTA-3′ [D45-22mer-n5]	36.8%	50.9%			
5′-CAATGCCATCCTGGAGTTCCTGT-3′ [D45-23mer-n4]	35.3%	45.3%			
5′-CCCAATGCCATCCTGGAGTTCC-3′ [D45-22mer-n1]	45.1%	62.3%			
5′-CCCAATGCCATCCTGGAGTTCCT-3′ [D45-23mer-n2]	46.4%	58.2%			
5′-CCCAATGCCATCCTGGAGTTCCTG-3′ [D45-24mer-n3]	44.2%	52.3%			
5′-CCCAATGCCATCCTGGAGTTCCTGT-3′ [D45-25mer-n4]	37.6%	42.6%			
5′-CCGCTGCCCAATGCCATCCTG-3′ [D45-21mer-6]	45.9%	59.5%			
5′-CCGCTGCCCAATGCCATCCTGGAG-3′ [D45-24mer-3]	37.2%	40.8%			
5′-GCCCAATGCCATCCTGGAGTTCC-3′ [D45-23mer-n1]	39.6%	54.4%			
5′-GGCCAAACCTCGGCTTACCTGAAAT-3′ [PMO-MDX23]			no significant decrease	following the same trends as the vehicle D2.mdx group	no significant improvement
5′-TGCCCAATGCCATCCTGGAGTTCCT-3′ [D45-25mer-n2]	44.0%	48.8%			

From patent US20240417429A1, “COMPOSITIONS AND METHODS FOR SKIPPING EXON 45 IN DUCHENNE MUSCULAR DYSTROPHY” (Entrada Therapeutics, Inc., priority 2021, published 2024)
